Data as given in patent US8551721B2, “Bioluminescent detection of cyanohydroxy benzothiazole compounds” (Promega Corporation, priority 2008, dated 2013).

How the values were obtained:
GST A1-1 = target: T1, GST A1-1 (Homo sapiens, UniProt P08263); assay: Utilization of benzothiazole by GST A1-1; format: biochemical; conditions: 55 minutes at room temperature; for light produced with GST A1-1 minus no enzyme, concentrated substrate: concentrated substrate solution (approximately 1 mg/mL diluted 1:100), glutathione; for light produced with GST A1-1 minus no enzyme, diluted substrate: substrate solution diluted 1:3.1, glutathione
T1 sequence (P08263 1-222): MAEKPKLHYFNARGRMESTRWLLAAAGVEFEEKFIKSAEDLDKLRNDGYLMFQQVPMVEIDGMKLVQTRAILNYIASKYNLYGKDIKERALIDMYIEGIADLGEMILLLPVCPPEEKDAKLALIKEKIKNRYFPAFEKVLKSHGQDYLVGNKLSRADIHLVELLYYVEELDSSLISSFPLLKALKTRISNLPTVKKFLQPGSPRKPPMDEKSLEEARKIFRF
Method: (§1) A small amount of compound 934-37 was dissolved in DMSO to produce a solution approximately 1 mg/mL. This solution was diluted 1:100 (v/v) into 50 mM HEPES buffer pH 7.5 to produce a substrate solution. Twenty μL of this solution was placed in 10 wells of a 96 well white luminometer plate (Promega part Z3291), then the solution was diluted 1:3.1 and 20 μL of the dilution was placed into another 10 wells in the luminometer plate.
(§2) D-Cysteine, 4 mg (Sigma Chemical Corp.; C8005-1 g, 017K1034) was dissolved into 1 mL of 50 mM HEPES buffer pH 7.5, then 4 μL added to 4 of the wells containing the substrate solution and 4 of the wells with diluted substrate solution to convert compound 934-37 to the corresponding luciferin derivative. The structures of these compounds are shown below.
A sample of GST A1-1 (1.2 mg/mL) and 100 μL of 100 mM glutathione in water was diluted into 5 mL of 50 mM HEPES pH 7.5, then 25 μL added to: two of the wells with unconverted, concentrated compound 934-37; 2 wells with concentrated and converted compound 934-37; and two of the wells with unconverted, diluted compound 934-37 and 2 of the wells with converted, diluted compound 934-37.
(§3) Glutathione (100 μL of 100 mM glutathione) had been diluted to 5 mL with 50 mM HEPES buffer pH 7.5, then 25 μL added to the remaining wells of converted and unconverted compound 934-37 in concentrated and diluted solution.
(§4) After 55 minutes at room temperature, 4 μL of the D-cysteine solution above was added to all wells that had not received cysteine before, then 50 μL of P450 Glo Luciferin Detection Reagent (made by dissolving a vial of Promega Luciferin Detection Reagent (Promega Part #V859B) with a vial of Promega P450-Glo Buffer (Promega Part #V865B). The plate was then placed into a Glo Max luminometer (Promega Corp.) and the light read after 15 minutes of incubation. The values obtained were averaged and the average value of the light produced from the wells given no enzyme were then subtracted from the average of the light produced with enzyme.

GST M1-1 = target: T2, GST M1-1 (Homo sapiens, UniProt P09488); assay: Utilization of benzothiazole by GST M1-1; format: biochemical; conditions: 55 minutes at room temperature; for light produced with GST M1-1 minus no enzyme, concentrated substrate: concentrated substrate solution (approximately 1 mg/mL diluted 1:100), glutathione; for light produced with GST M1-1 minus no enzyme, diluted substrate: substrate solution diluted 1:3.1, glutathione
T2 sequence (P09488 1-218): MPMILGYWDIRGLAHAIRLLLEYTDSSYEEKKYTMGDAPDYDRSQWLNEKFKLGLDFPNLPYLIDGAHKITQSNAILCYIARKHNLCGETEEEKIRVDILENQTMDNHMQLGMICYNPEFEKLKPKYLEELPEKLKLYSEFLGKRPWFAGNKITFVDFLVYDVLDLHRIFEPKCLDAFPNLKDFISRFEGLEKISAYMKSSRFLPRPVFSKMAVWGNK
Method: as §1, §2
A sample of GST M1-1 (1.2 mg/mL) and 100 μL of 100 mM glutathione was diluted into 5 mL of 50 mM HEPES pH 7.5, then 25 μL added to: two of the wells with unconverted, concentrated compound 934-37; 2 wells with concentrated and converted compound 934-37; and two of the wells with unconverted, diluted compound 934-37 and 2 of the wells with converted, diluted compound 934-37.
as §3, §4

UGT isozymes = conditions: cited from earlier work; for Isozymes Modulated: isozymes currently reported in the literature to be modulated by the compound
UGT 1A4 = target: T3, UGT 1A4 (Homo sapiens, UniProt P22310); assay: UGT activity: utilization of substrate by recombinant UGT 1A4 Supersomes; format: biochemical; conditions: 2 hour incubation at 37° C., plus vs minus UDPGA
T3 construct: purchased BD Gentest; host or cells: insect cells (microsomes)
T3 sequence (P22310 29-534): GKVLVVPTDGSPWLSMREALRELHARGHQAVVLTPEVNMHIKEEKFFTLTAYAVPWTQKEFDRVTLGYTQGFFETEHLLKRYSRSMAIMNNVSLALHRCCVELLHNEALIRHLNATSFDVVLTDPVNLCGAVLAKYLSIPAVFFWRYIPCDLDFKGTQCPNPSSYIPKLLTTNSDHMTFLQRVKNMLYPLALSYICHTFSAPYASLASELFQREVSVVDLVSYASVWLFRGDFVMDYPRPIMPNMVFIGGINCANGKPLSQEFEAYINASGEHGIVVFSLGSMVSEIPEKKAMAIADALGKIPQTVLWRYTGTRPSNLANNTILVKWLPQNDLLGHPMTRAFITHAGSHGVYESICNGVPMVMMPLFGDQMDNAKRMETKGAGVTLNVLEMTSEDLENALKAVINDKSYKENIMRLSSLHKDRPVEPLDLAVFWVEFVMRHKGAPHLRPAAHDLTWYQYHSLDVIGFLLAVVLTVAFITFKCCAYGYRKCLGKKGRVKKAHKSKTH
Method: The invention includes a method of determining activity of the uridine 5′-diphospho-glucuronosyltransferase (UDP-glucuronosyltransferase, or UGT) family enzymes in vitro. Briefly, UGT enzymes from overexpressed insect microsomes (Supersomes™, BD Gentest™) or animal tissue microsomes (Xenotech, BD Gentest™) were incubated with a cyanobenzothiazole substrate of the invention and the cofactor UDP-glucuronic acid (UDPGA) at 37° C. in buffer at physiological pH containing MgCl2 and alamethicin (typically, 50 mM TES, pH 7.5, 8 mM MgCl2, 4 mM UDPGA (Sigma) and 25 μg/mL alamethicin (Sigma)). Following the UGT enzyme reaction, an equal volume of P450-Glo Luciferin Detection Reagent (Promega) containing 15-30 mM D-cysteine-HCl.H2O (Sigma) was added and the plate was mixed and incubated at room temperature, typically for 20-30 minutes. P450-Glo Luciferin Detection Reagent can be prepared by dissolving a vial of Promega Luciferin Detection Reagent (Promega Part #V859B) with a vial of Promega P450-Glo Buffer (Promega Part #V865B).
(§5) During this incubation, the cysteine reacts with the cyanobenzathiozole substrate to yield a D-luciferin derivative. […] Therefore, activity of the UGT enzyme can be measured by analyzing the difference (lower or no output) in relative light units (RLU) of a sample in which glucuronidation occurs compared to a sample that was run under the same conditions with no added UDPGA cofactor.
In this example, a series of 12 recombinant UGTs expressed in insect microsomes (Supersomes™, BD Gentest™), as well as the control microsomes not expressing the UGT enzyme, were incubated with compound 3138, compound 3478, or compound 3165 as substrates, with or without the UDPGA co-factor. […]
Reactions were assembled in a white 96-well plate. […] After the incubation was completed, the plate was read on a Veritas™ luminometer (Turner BioSystems, Inc.; Sunnyvale, Calif.). […]

[1] = tested on: endogenously expressed UGT isozymes in mammalian microsomes; assay: Utilization of compounds by mammalian microsomes; format: biochemical; conditions: 0.2 mg/mL microsomes, 50 μM compound, reactions run for 2 hours
Method: The invention includes a method of determining activity of the uridine 5′-diphospho-glucuronosyltransferase (UDP-glucuronosyltransferase, or UGT) family enzymes in vitro. […] Following the UGT enzyme reaction, an equal volume of P450-Glo Luciferin Detection Reagent (Promega) containing 15-30 mM D-cysteine-HCl.H2O (Sigma) was added and the plate was mixed and incubated at room temperature, typically for 20-30 minutes. P450-Glo Luciferin Detection Reagent can be prepared by dissolving a vial of Promega Luciferin Detection Reagent (Promega Part #V859B) with a vial of Promega P450-Glo Buffer (Promega Part #V865B).
as §5
Tissue microsomes were obtained from Xenotech LLC or BD Gentest.

human liver microsomes = assay: Utilization of compound 3165 by human liver, renal and intestinal microsomes; format: biochemical; conditions: 2 hours at 37° C., 0.2 mg/mL microsomes, 50 μM compound
Method: (§6) The invention includes a method of determining activity of the uridine 5′-diphospho-glucuronosyltransferase (UDP-glucuronosyltransferase, or UGT) family enzymes in vitro. Briefly, UGT enzymes from overexpressed insect microsomes (Supersomes™, BD Gentest™) or animal tissue microsomes (Xenotech, BD Gentest™) were incubated with a cyanobenzothiazole substrate of the invention and the cofactor UDP-glucuronic acid (UDPGA) at 37° C. in buffer at physiological pH containing MgCl2 and alamethicin (typically, 50 mM TES, pH 7.5, 8 mM MgCl2, 4 mM UDPGA (Sigma) and 25 μg/mL alamethicin (Sigma)). […]
as §5
(§7) The ability of endogenously expressed UGT isozymes to utilize compounds 3138 and 3165 as substrates was determined in a similar manner to the assays with recombinant microsomes (Example 1). […]

rat liver microsomes = assay: Utilization of compound 3165 by rat liver microsomes; format: biochemical; conditions: 2 hours at 37° C., 0.2 mg/mL microsomes, 50 μM compound
Method: as §6, §5, §7

mouse liver microsomes = assay: Utilization of compound 3165 by mouse liver microsomes; format: biochemical; conditions: 2 hours at 37° C., 0.2 mg/mL microsomes, 50 μM compound
Method: as §6, §5, §7

Compound: Cc1cc(S(=O)(=O)Oc2ccc3nc(C#N)sc3c2)ccc1[N+](=O)[O-] [compound 934-37]
- light produced with GST A1-1 minus no enzyme, concentrated substrate (GST A1-1): 164,400 RLU
- light produced with GST A1-1 minus no enzyme, diluted substrate (GST A1-1): 195,021 RLU
- light produced with GST M1-1 minus no enzyme, concentrated substrate (GST M1-1): 41,212 RLU
- light produced with GST M1-1 minus no enzyme, diluted substrate (GST M1-1): 30,428 RLU

Compound: Cc1cc(S(=O)(=O)Oc2ccc3nc(C4=N[C@@H](C(=O)O)CS4)sc3c2)ccc1[N+](=O)[O-] [converted compound 934-37]
- light produced with GST A1-1 minus no enzyme, concentrated substrate (GST A1-1): 6,410 RLU
- light produced with GST A1-1 minus no enzyme, diluted substrate (GST A1-1): 6,462 RLU
- light produced with GST M1-1 minus no enzyme, concentrated substrate (GST M1-1): 315,759 RLU
- light produced with GST M1-1 minus no enzyme, diluted substrate (GST M1-1): 213,920 RLU

Compound: CC(C)c1nc(CN(C)C(=O)N[C@H](C(=O)N[C@@H](Cc2ccccc2)C[C@H](O)[C@H](Cc2ccccc2)NC(=O)OCc2cncs2)C(C)C)cs1 [Ritonavir]
- inhibition of UGT isozymes as reported in the literature (UGT isozymes; literature report): inhibits UGT 1A 1 and 1A4, but has little effect on UGT 2B7

Compound: C=C[C@H]1C[N@@]2CC[C@H]1C[C@@H]2[C@@H](O)c1ccnc2ccc(OC)cc12 [Quinidine]
- Isozymes Modulated (UGT isozymes): 2B7 and 2B15, others to a lesser extent

Compound: Cc1cc(NCc2cccc(N)c2)cc2sc(C#N)nc12 [compound 3165]
- utilization by UGT 1A4 (in words) (UGT 1A4): only utilized by UGT 1A4
- rate of utilization of compound 3165 by mammalian microsomes (compared with compound 3138) [1]: much slower
- utilization of compound 3165: human liver vs human renal and intestinal microsomes (human liver microsomes): much higher for human liver microsomes than either human renal or human intestinal microsomes
- utilization of compound 3165 by rat liver microsomes (rat liver microsomes): Activity was also seen for both rat and mouse liver microsomes
- utilization of compound 3165 by mouse liver microsomes (mouse liver microsomes): Activity was also seen for both rat and mouse liver microsomes

Compound: O=c1ccc2ccc(O)cc2o1 [Umbelliferne]
- Isozymes Modulated (UGT isozymes): Substrate of most isozymes

Compound: O=c1cc(C(F)(F)F)c2ccc(O)cc2o1 [7-hydroxy-4-trifluoromethyl coumarin]
- Isozymes Modulated (UGT isozymes): Substrate for 1A1, 1A3, 1A6, 1A9, 2B7
